Assay results published in patent publication US20050267030A1, “Use of deltaPKC peptides for modulation of reactive oxygen species” (priority 2004, published 2005).
Ends that are not written are not given here.

Assays:
[1] = test system: rat vascular smooth muscle cells; test: Production of reactive oxygen species (superoxide) in vitro, loss of tempoamine signal by electron spin resonance; assay type: cell-based; conditions: FIG. 2
Protocol: Example 1 details a study where inhibitors and activators of δPKC were administered to rat vascular smooth muscle cells in vitro. Cells were incubated in presence of (1) the agonist Tat-conjugated peptide ψδRACK (SEQ ID NO:5); (2) phorbol 12-myristate 13-acetate (PMA); or (3) the antagonist Tat-conjugated peptide δV1-1 (SEQ ID NO:3) plus PMA. A control cell sample was left untreated. Tempoamine ((2,2,6,6-tetramethyl-1-piperidi-nyloxy-4-amine)) was added to each culture and the loss of tempoamine signal was measured by electron spin resonance to measure superoxide production.
PMA, a non-isozyme specific activator of PKC, stimulated a 3-4 fold increase in ROS in the cells. […] Inhibition of this PKC isoform caused a decrease in PMA-stimulated ROS production.
Rat vascular smooth muscle cells were harvested from Zucker lean aortas by enzymatic digestion and cultured in Dulbecco's modified eagle's medium with 10% fetal bovine serum and penicillin/streptomycin under standard tissue culture conditions. The cells were incubated in the presence tempoamine ((2,2,6,6-tetramethyl-1-piperidi-nyloxy4-amine)) (100 μM) and in the presence of (1) the agonist Tat-conjugated peptide ψδRACK (10 μM); (2) phorbol 12-myristate 13-acetate (PMA, 500 ng/mL); or (3) the antagonist Tat-conjugated peptide δV1-1 (10 μM) plus PMA (500 ng/mL). A control cell sample was left untreated. The loss of tempoamine signal was measured by electron spin resonance to measure superoxide production.

[2] = test system: Zucker obese rats (fa/fa); test: ROS (superoxide) production in aorta tissue homogenates of Zucker rats, electron spin resonance; assay type: in vivo, rat; conditions: Zucker obese rats treated, versus Zucker lean control, FIG. 3A
Protocol: Tissue homogenates from the aortas of Zucker obese rats and of Zucker lean (Fa/fa) rats were prepared and analyzed for superoxide production using electron spin resonance with a tempomaine probe.

Cbfa-1 = Cbfa-1 gene expression in rat vascular smooth muscle cells, TaqMan real time PCR; assay type: cell-based; conditions: cells incubated with Tat-conjugated peptide versus untreated control, FIG. 5C
Protocol: (§1) In another study, described in Example 4, the gene transcriptional effects of insulin and the selective inhibition of PKC isoforms was examined using real-time polymerase chain reaction (TaqMan® PCR). In vitro cells were incubated with insulin and in the presence or absence of a δPKC inhibitor, δV1-1 peptide. The expression of TGF-β and core binding factor α-1 (Cbf α-1) were monitored using TaqMan® real time PCR. Rat vascular smooth muscle cells passages three through seven were prepared as describe in Example 1B. The cells were incubated with insulin (100 nm, SourceLife Technologies) or with the δPKC inhibitor peptide δV1-1, prepared as described in Example 1A. RNA isolation and purification were performed as described in Example 2 and TaqMan® real time PCR was used to analyze the relative quantity TGF-β1 and core binding factor α-1 (Cbf α-1). PCR primers and probes were obtained commercially from Applied Biosystems, Inc. and the PCR was performed on an Applied Biosystems ABI Prism 7700.

TGF-β1 = TGF-β1 gene expression in rat vascular smooth muscle cells, TaqMan real time PCR; assay type: cell-based
Protocol: as §1

δPKC = test: Translocation of δPKC in cells incubated with insulin, Western blot of cytosol and membrane fractions; assay type: cell-based, rat; conditions: bovine insulin 100 nM, up to 24 hours, semi-quantitative from Western blot, FIG. 4B
Protocol: Example 3 describes a study conducted to examine to role of PKC isozymes, and in particular δPKC, in vascular fibrosis, which is accelerated during the insulin-resistant, pre-diabetic state in animals. In this study, rat vascular smooth muscle cells were incubated with bovine insulin. Translocation of PKC isozymes was assessed by Western blot analysis of the cystosolic and membrane (particulate) fractions of the cells. The subcellular localization of various PKC isozymes was assessed by […] by probing the blot with isozyme specific antibodies, such as anti-δPKC, anti-αPKC, and anti-ε PKC, etc. […]
Rat vascular smooth muscle cells passages three through seven were prepared as described in Example 1 B. The cells were incubated with bovine insulin (100 nM) for time periods of up to 24 hours. Activation of various PKC isozymes was analyzed by harvesting the cells and separating the protein into cytosolic and membrane (particulate) fractions and examining both fractions by Western blot using anti-δPKC, anti-αPKC, and anti-ε PKC for the presence of different PKC isoforms. The activity of the isoform was assessed as amount of PKC in the membrane fraction divided by the total amount of protein in both fractions (cytosol and membrane), normalized to control.

CCCCCCCCCCCCCC(=O)O[C@@H]1[C@@H](C)[C@@]2(O)[C@@H](C=C(CO)C[C@]3(O)C(=O)C(C)=C[C@@H]23)[C@@H]2C(C)(C)[C@]12OC(C)=O [PMA, phorbol 12-myristate 13-acetate, reference compound]
increase in ROS in the cells ([1]; PMA 500 ng/mL, tempoamine 100 μM): 3-4 fold

O=C1CSC(=O)N1 [TZD1]
ROS production in aorta homogenates [2]: brought the ROS production down to control levels

MRAAEDPM (not fully specified; also: Tat conjugated; listed as Rattus norvegicus) [ψδRACK, δPKC agonist peptide, amino acids 74-81 of δPKC]
production of ROS ([1]; Tat-conjugated peptide 10 μM, tempoamine 100 μM, versus untreated control): increased production of ROS

SFNSYELGSL (not fully specified; also: Tat conjugated; listed as Rattus norvegicus) [δV1-1, δPKC antagonist peptide, amino acids 8-17 of δPKC]
ROS production stimulated by PMA ([1]; Tat-conjugated peptide 10 μM co-incubated with PMA 500 ng/mL): effective to reverse or inhibit a significant part of the ROS production stimulated by PMA
Cbfa-1 gene expression (Cbfa-1): inhibited
TGF-β1 expression (TGF-β1; cells incubated with Tat-conjugated peptide versus untreated control, FIG. 5B): inhibited

insulin: bovine insulin incubated with rat vascular smooth muscle cells
relative δPKC activity (membrane fraction / total, normalized to control) (δPKC): about 1.7
normalized TGF-β expression (TGF-β1; cells incubated with insulin (100 nm) versus untreated control, FIG. 5A): did not appear to stimulate
